According to paper PMC10004777 (Molecules, 2023):

Experiments:
[1] = system: MCF-7 breast cancer cells; assay: Cell viability (MTT) assay, MCF-7; type: cell-based
Method: MCF-7 is a commonly used tumor cell line.
(§1) The cell lines present in this study were obtained from Procell Life Science & Technology Co. Ltd. MCF-7, HepG2 and SJSA-1 cells were cultured in DMEM medium (DMEM, Gibco) supplemented with 10% fetal bovine serum (FBS, Gibco), 1% penicillin-streptomycin (Hyclone) at 37℃ in a humid environment with 5% CO2. HK-2 cells were cultured in DMEM/F12 (1:1) medium and placed in incubators in the same environment.
(§2) Cell viability was determined by MTT assay. MCF-7, HepG2, SJSA-1 and HK-2 cells (6 × 10^3 cells /well) were seeded in 96-well plates with serum-free medium for 24 h. […] After 48 or 72 h, 10 μL MTT (5 mg/mL, Beyotime) was added and incubated at 37 °C for 4 h. Then 100 μL of lysate was added. After complete dissolution of the crystal, the absorbance was measured at 540 nm and expressed as the average percentage of absorbance between treated and control cells. The value for control cells was set at 100%. Cell survival rate was calculated as the ratio of the absorbance of the cells and negative control after minus the blank absorbance respectively.

[2] = system: osteosarcoma cell line SJSA-1; assay: Cell viability (MTT) assay, SJSA-1; type: cell-based
Method: (§3) To investigate the selectivity of these derivatives towards different tumor cell lines, we also selected HepG2 and osteosarcoma cell line SJSA-1 cells to evaluate the anti-proliferation activity of the derivatives. […] Except for compounds A2 and A11, the effects of other compounds on SJSA-1 were not strong.
as §1, §2

[3] = system: HK-2 cells; assay: Cell viability (MTT) assay, HK-2 normal cells (cytotoxicity); type: cell-based
Method: as §1, §2

[4] = system: HepG2 cells; assay: Cell viability (MTT) assay, HepG2; type: cell-based
Method: as §3, §1, §2

In the case of `Cc1ccc(CCNC(=O)[C@H](C)CC(=O)C[C@@H](C)[C@H]2C[C@H](O)[C@@]3(C)C4=C(C(=O)C[C@]23C)[C@@]2(C)CCC(=O)C(C)(C)[C@@H]2C[C@@H]4O)cc1` [Compound A10, (4-Methylphenethyl)-(7β,15α,25R)-7,15-Dihydroxy-3,11,23-Trioxolanost-8-en-26-oic Amide], the “Viability of Cells (% of Control)” value ([1]; 25 µM) is reported as 120.8 ± 4.8 % of Control, the “Viability of Cells (% of Control)” value ([1]; 50 µM) is reported as 118.3 ± 6.0 % of Control and the “Viability of Cells (% of Control)” value ([1]; 100 µM) is reported as 104.1 ± 2.2 % of Control. For the same molecule, the “Viability of Cells (% of Control)” value ([2]; 50 µM) was 80.0 ± 2.7 % of Control, the “Viability of Cells (% of Control)” value ([2]; 100 µM) was 75.6 ± 4.8 % of Control and the “Viability of Cells (% of Control)” value ([3]; 50 µM) was 110.9 ± 9.6 % of Control. For the same molecule, the “Viability of Cells (% of Control)” value ([3]; 100 µM) was 91.1 ± 5.5 % of Control, the “Viability of Cells (% of Control)” value ([4]; 25 µM) was 57.9 ± 0.5 % of Control and the “Viability of Cells (% of Control)” value ([4]; 50 µM) was 58.8 ± 1.4 % of Control. The melting point was 221.9 to 223 °C.
In the case of `C[C@H](CC(=O)C[C@@H](C)[C@H]1C[C@H](O)[C@@]2(C)C3=C(C(=O)C[C@]12C)[C@@]1(C)CCC(=O)C(C)(C)[C@@H]1C[C@@H]3O)C(=O)NCCc1ccc(F)cc1` [Compound A11, (4-Fluorophenethyl)-(7β,15α,25R)-7,15-Dihydroxy-3,11,23-Trioxolanost-8-en-26-oic Amide], the “Viability of Cells (% of Control)” value ([1]; 25 µM) is reported as 100.5 ± 2.5 % of Control, the “Viability of Cells (% of Control)” value ([1]; 50 µM) is reported as 101.8 ± 0.2 % of Control and the “Viability of Cells (% of Control)” value ([1]; 100 µM) is reported as 58.4 ± 5.5 % of Control. For the same molecule, the “Viability of Cells (% of Control)” value ([2]; 50 µM) was 56.1 ± 8.7 % of Control, the “Viability of Cells (% of Control)” value ([2]; 100 µM) was 41.9 ± 3.1 % of Control and the “anti-proliferation activity on SJSA-1 (in words)” value ([2]; SJSA-1, 72 h) was “some selectivity for SJSA-1”. The “Viability of Cells (% of Control)” value ([3]; 50 µM) was 89.8 ± 9.6 % of Control, the “Viability of Cells (% of Control)” value ([3]; 100 µM) was 86.9 ± 2.7 % of Control and the “Viability of Cells (% of Control)” value ([4]; 25 µM) was 78.5 ± 3.0 % of Control. For the same molecule, the “Viability of Cells (% of Control)” value ([4]; 50 µM) was 69.1 ± 2.0 % of Control and the melting point was 188.1 to 189 °C.
With `C[C@H](CC(=O)C[C@@H](C)[C@H]1C[C@H](O)[C@@]2(C)C3=C(C(=O)C[C@]12C)[C@@]1(C)CCC(=O)C(C)(C)[C@@H]1C[C@@H]3O)C(=O)NCCc1ccc(Cl)cc1` [Compound A12, (4-Chlorophenethyl)-(7β,15α,25R)-7,15-Dihydroxy-3,11,23-Trioxolanost-8-en-26-oic Amide] the “Viability of Cells (% of Control)” value ([1]; 25 µM) was 119.0 ± 3.4 % of Control, the “Viability of Cells (% of Control)” value ([1]; 50 µM) was 110.5 ± 6.0 % of Control and the “Viability of Cells (% of Control)” value ([1]; 100 µM) was 102.9 ± 3.8 % of Control. For the same molecule, the “Viability of Cells (% of Control)” value ([2]; 50 µM) was 73.5 ± 1.2 % of Control, the “Viability of Cells (% of Control)” value ([2]; 100 µM) was 65.5 ± 1.5 % of Control and the “Viability of Cells (% of Control)” value ([3]; 50 µM) was 124.1 ± 2.6 % of Control. For the same molecule, the “Viability of Cells (% of Control)” value ([3]; 100 µM) was 111.2 ± 6.5 % of Control, the “Viability of Cells (% of Control)” value ([4]; 25 µM) was 29.1 ± 0.4 % of Control and the “Viability of Cells (% of Control)” value ([4]; 50 µM) was 25.6 ± 0.8 % of Control. For the same molecule, the inhibition at 50 µM ([4]; Homo sapiens, HepG2, 50 µM (printed: below 50 µM), 48 h, read-out: inhibition rate of HepG2) was 74.4% and the melting point was 195.4 to 196.1 °C.
For `C[C@H](CC(=O)C[C@@H](C)[C@H]1C[C@H](O)[C@@]2(C)C3=C(C(=O)C[C@]12C)[C@@]1(C)CCC(=O)C(C)(C)[C@@H]1C[C@@H]3O)C(=O)N1CCN(c2ccccc2)CC1` [Compound A15, (4-Phenylpiperazin-1-yl)-(7β,15α,25R)-7,15-Dihydroxy-3,11,23-Trioxolanost-8-en-26-oic Amide], the “Viability of Cells (% of Control)” value ([1]; 25 µM) was 74.3 ± 5.2 % of Control, the “Viability of Cells (% of Control)” value ([1]; 50 µM) was 70.4 ± 1.5 % of Control and the “Viability of Cells (% of Control)” value ([1]; 100 µM) was 66.5 ± 1.4 % of Control. For the same molecule, the “anti-proliferation activity on MCF-7 compared with GAA” value ([1]; MCF-7, 48 h) was “significant anti-proliferation activities”, the “Viability of Cells (% of Control)” value ([2]; 50 µM) was 75.9 ± 0.9 % of Control and the “Viability of Cells (% of Control)” value ([2]; 100 µM) was 83.5 ± 0.8 % of Control. For the same molecule, the “Viability of Cells (% of Control)” value ([3]; 50 µM) was 123.3 ± 5.5 % of Control, the “Viability of Cells (% of Control)” value ([3]; 100 µM) was 111.0 ± 8.7 % of Control and the “Viability of Cells (% of Control)” value ([4]; 25 µM) was 77.1 ± 2.1 % of Control. For the same molecule, the “Viability of Cells (% of Control)” value ([4]; 50 µM) was 99.3 ± 0.2 % of Control, the “anti-proliferation activity on HepG2 (in words)” value ([4]; HepG2, 48 h) was “weaker anti-proliferation effect” and the melting point was 229.4 to 229.9 °C.
